These results are taken from patent publication US10022412B2, “Composition for preventing or alleviating periodontal diseases, containing, as active ingredient, mangosteen extract or α- or γ-mangosteen” (Medi Bio Lab. co., Ltd., priority 2014, dated 2018).

Molecules are shown by their SMILES. In brackets after ≈: the same amount, converted by molar mass. Like-named read-outs stand apart in the source and are kept apart here.

One may read the MIC as the lowest concentration that inhibits growth of the organism.

In the experiment the test system is Streptococcus mutans ATCC 25175. The experiment can be described thus: MIC test for Streptococcus mutans (NCCLS). In kind it is cell-based. The source says: Generally there are minimum inhibitory concentration (hereinafter, referred to MIC) test and time-kill assay test as test methods that become the standard for judging utility of antibiotics, when a new antibiotics is developed.
MIC TEST is a test method deciding minimum inhibitory concentration where bacteria cannot grow well, namely minimal usage of antibiotics for obtaining purposed antibacterial efficacy, and Time-Kill assay test is a test method deciding usage of antibiotics that can maintain purposed efficacy for certain time range. Each test was performed, in order to test whether mangosteem extracts have proliferation inhibiting efficacy against Streptocccus Mutans (Streptocccus Mutans ATCC […]) to a certain degree.
MIC test for Streptococcus mutans (Streptococcus mutans ATCC 25175) was progressed according to the American clinical test standard method, NCCLS (National Committee for Clinical Laboratory Standards). To do comparative test of antibacterial ability of mangosteen extracts against Streptococcus mutans, after preparing each analysis sample as shown in the following table 5, that is the concentration of each analysis sample was 0, 1, 2, 3, 4, 5, 6, 7, 8, 9 and 10 ul, and the concentration of used Streptococcus mutans bacteria finally became 1×10^5 at the ratio of 50% by weight, and the concentration of DMSO (dimethyl sulfoxide) used as an analysis sample solvent finally became 1% by weight, and BHI medium (Brain heart infusion: Peptic Digest of Animal tissue, Sodium Chloride, Dextrose, Pancreatic Digest of Gelation, Disodium Phosphate, Final PH7.4+-0.2; Difco Company) was added for the remaining 40% by weight, they were used for the test. […]
After adding the samples in a microtube (duplicate) and culturing at 37° C. for 24 hrs, growth inhibit ion degree was observed by measuring absorbance at 500 nm.

With `COc1c(O)cc2oc3cc(O)c(CC=C(C)C)c(O)c3c(=O)c2c1CC=C(C)C` [Alpha-mangosteen, alpha-mangosteen], the MIC (S. mutans ATCC 25175, 37° C. 24 hrs, absorbance 500 nm) is reported as 1.0(ug/ml) and the MIC (Streptococcus mutans, ATCC25175, S. mutans ATCC 25175, 37° C. 24 hrs, absorbance 500 nm, read-out: MIC) worked out at 1 µg/mL (≈ 2.44 µM). Turning to `CC(C)=CCc1c(O)cc2oc3cc(O)c(O)c(CC=C(C)C)c3c(=O)c2c1O` [Gamma-mangosteen, gamma-mangosteen], the MIC (Streptococcus mutans, ATCC25175, 24 h) was determined as 4 µg/mL (≈ 10.1 µM).
